Source: article PMC13080969 (Journal of Chemical Information and Modeling, 2026)
Read-outs that look alike come from different tables or passages of the source.

Tests used:
[1] = system: intracellular L. infantum amastigotes; assay: Intracellular assay in infected THP-1-derived macrophages; assay type: cell-based, Leishmania infantum; conditions: for IC50: 48 h; for Selectivity index Intracellular: SI = CC50/IC50
Procedure: (§1) L. infantum promastigotes were grown at 26 °C in Schneider medium (Sigma), supplemented with 20% heat-inactivated fetal bovine serum (Sigma) and 1% penicillin-streptomycin (Sigma). To ensure maintenance of virulence, the parasites were serially passed through BALB/c mice. THP-1 cells were cultured in RPMI-1640 medium (Sigma-Aldrich), supplemented with 10% heat-inactivated SFB (Sigma) and 1% penicillin-streptomycin (Life Technologies), maintained at a density of 10^6 cells/mL, and incubated at 37 °C in a 5% CO2 atmosphere. For differentiation, THP-1 cells were seeded in 96-well culture plates at a concentration of 1 × 10^4 cells/well and treated with 100 ng/mL of […] (PMA, Sigma-Aldrich) and incubated for 48 h at 37 °C and 5% CO2. Cell viability was previously assessed using the Trypan Blue exclusion method. […] Differentiated THP-1 cells were washed with nonsupplemented RPMI-1640 and given fresh medium without PMA. The cells were rested for 24 h before further treatment.
THP-1 cells differentiated in 96-well culture plates were infected with promastigotes in the stationary phase at a ratio of 30 parasites: 1 cell for 4 h at 37 °C in a final volume of 100 μL. The noninternalized parasites were then removed by washing with RPMI-1640 medium. The compounds were diluted at concentrations of 200–0.7 μM in 100 μL of culture medium per well for serial dilution. Subsequently, 100 μL of the diluted compounds was added to the infected THP-1 cells and incubated for 48 h, with each condition tested in technical replicates (≥2 wells per condition). The number of intracellular parasites per 100 macrophages was counted using light microscopy. The infection rate was determined in relation to the mean of the control wells. The IC50 values were determined independently in three separate experiments by fitting concentration–response curves to a 4PL model in GraphPad Prism v10.

[2] = Cytotoxicity assay (resazurin); assay type: cell-based; conditions: human, THP-1 cells, pH 7.4
Procedure: as §1
THP-1 cells were cultured in 96-well plates at a density of 1 × 10^4 cells per well in 100 μL of RPMI 1640 medium supplemented with 10% heat-inactivated fetal bovine serum (FBS) and 25 mM HEPES (pH 7.4). Cultures were maintained at 37 °C in a humidified atmosphere containing 5% CO2. After 24 h of incubation, the test compounds were prepared in serial dilutions in complete medium, starting at a concentration of 200 μM. Subsequently, 100 μL of each diluted compound solution was added to the corresponding wells containing the cells, with each concentration tested in duplicate wells. Following a 72 h incubation period, resazurin solution (Sigma) was added to each well at a final concentration of 20 μM, and plates were incubated for an additional 4 h under the same conditions. Fluorescence was measured using a SpectraMax M5 microplate reader (Molecular Devices, Sunnyvale, CA, USA) with an excitation wavelength of 570 nm and an emission wavelength of 595 nm.

[3] = system: L. infantum promastigotes; assay: Promastigote assay (resazurin viability); assay type: cell-based, Leishmania infantum; conditions: for IC50: Leishmania infantum, 48 h, read-out: L. infantum IC50 Promastigotes; for Selectivity index Promastigotes: SI = CC50/IC50
Procedure: as §1
To evaluate the effect of prioritized compounds on parasite viability, 4 × 10^6 promastigotes/mL were incubated in the presence of a series of 11 points (0.1% DMSO) for 48 h at 28 °C to a final volume of 200 μL in a 96-well microplate, with each condition tested in technical replicates (≥2 wells per condition). Next, 20 μL of resazurin solution (0.39 mM) was added to each well and incubated for 4 h, and then fluorescence was recorded (570 nmex/595 nmem) on a microplate reader SpectraMax M5 (Molecular Devices, Sunnyvale, CA). The IC50 values were determined in three independent experiments by fitting concentration–response curves using nonlinear regression with a four-parameter logistic (4PL) model in GraphPad Prism v10.

[4] = Parallel artificial membrane permeability assay (PAMPA); assay type: in vitro ADME; conditions: donor pH 6.5, acceptor pH 7.4, 5 h, 37 °C; for Papp at 5 h, 10 μM: PAMPA, read-out: PAMPA Pe
Procedure: (§2) ADME profiling was conducted using liquid chromatography coupled with tandem mass spectrometry (LC–MS/MS).
Each well is divided into two chambers, donor and acceptor, separated by a triple-layer phospholipid membrane constructed on a porous filter. Solutions of the compounds are prepared by diluting their respective stock solutions (10 mM in DMSO) in phosphate-buffered saline (PBS) at pH 6.5, yielding a final concentration of 10 μM (<1% DMSO, v/v). The solutions are then added to the donor portion of the plate (300 μL/well) in triplicate, while the acceptor portion received only PBS pH 7.4 (200 μL/well). The donor and acceptor portions are subsequently assembled, and the system is incubated for 5 h at 37 °C and 100 rpm. […] After the incubation period, samples are collected from the donor (10 μL) and acceptor (80 μL) wells and added to the analysis plate containing stop solution (300 μL) and PBS buffer pH 6.5 (60 μL). Final compound concentrations in the donor, acceptor, and Tzero wells are quantified by LC-MS/MS. The chromatogram for analysis was achieved on Supelco Ascentis express C18 column (3 cm × 2.1 mm, 5 μM). The mobile phases consisted of water +0.1% formic acid (A) and acetonitrile +0.1% formic acid (B). […] The results were used to calculate an effective permeability (Pe) value. All PAMPA assay was performed in triplicates.

[5] = Mouse liver microsomal stability assay; assay type: in vitro ADME; conditions: CD1, mouse, mouse liver microsomes, pH 7.4, 0.25 mg/mL protein; for microsomal CLint at 0.5 μM: read-out: MLM CLint; for half-life at 0.5 μM: read-out: MLM T 1/2
Procedure: as §2
Compounds were diluted to a final concentration of 0.5 μM and incubated with microsomal protein at 0.25 mg/mL in phosphate-buffered saline (PBS) at pH 7.4. The DMSO content in the incubation mixture was maintained below 1%. The metabolic reaction was initiated by introducing NADPH as a cofactor at a concentration of […]. Aliquots were taken at defined time intervals: 0 (immediately after NADPH addition), 5, 10, 20, 30, and 60 min. Reactions were halted by the addition of a quenching solvent consisting of a 1:1 mixture of acetonitrile and methanol containing an internal standard at 50 nM. Following quenching, samples were centrifuged at 3500 rpm for 30 min to pellet the precipitated microsomal proteins. The resulting supernatants were analyzed via LC–MS/MS. Quantification was performed based on the peak area ratio (PAR) of the analyte to internal standard, with the signal at time zero defined as 100%. The percentage of parent compound remaining at each time point was calculated accordingly. Using the plot of % remaining versus incubation time, the degradation rate constant (k) was determined via nonlinear regression. […] Chromatographic analysis was carried out using a Supelco Ascentis Express C18 column (3 cm × 2.1 mm, 5 μm particle size). The mobile phases were composed of water with 0.1% formic acid (A) and acetonitrile with 0.1% formic acid (B). […] All metabolic stability assays were conducted in triplicate.

[6] = Experimental determination of distribution coefficient (eLogD), chromatographic; assay type: physicochemical; conditions: Supelco Ascentis Express RP Amide HPLC column; pH 7.4, chromatographic retention method
Procedure: as §2
The eLogD was carried out using a chromatographic method based on the analyte retention times within a stationary phase. Separation was performed on a Supelco Ascentis Express RP Amide high-performance liquid chromatography (HPLC) column (5 cm × 2.1 mm, 2.7 μm particle size), utilizing a binary mobile phase system composed of 5% methanol in 10 mM ammonium acetate buffer at pH 7.4 (designated as solvent A), and pure methanol (solvent B). […] The injection volume for each sample was 5 μL. Test compounds were diluted to a concentration of 1.0 mg/mL in a 1:1 mixture of mobile phases A and B, containing an internal standard at 200 nM. Final DMSO concentration was kept below 2%. […] A calibration curve was generated by plotting the retention times of these standards against their corresponding eLogD values. The linear regression equation (y = mx + b) obtained from this curve was then used to calculate the eLogD of each test compound.

[7] = Leishmania infantum, Macrophage, THP-1-derived macrophages infected with L. infantum, read-out: L. infantum IC50 Intracellular
[8] = Leishmania infantum, Macrophage, read-out: L. infantum IC50 Intracellular, THP-1-derived macrophages infected with L. infantum, 48 h
[9] = THP-1-derived macrophages infected with L. infantum, read-out: L. infantum IC50 Intracellular

Cc1ccccc1CN1CCC(CN(Cc2cccnc2)Cc2cc(CC(C)C)[nH]n2)CC1 [LC-58]
IC50 [1, 7]: 7.81 ± 4.13 µM
Selectivity index Intracellular [1]: 4.48
CC50 at 72 h [2]: 35 ± 5.2 µM
IC50 ([3]; resazurin): 7.85 ± 0.64 µM
Selectivity index Promastigotes [3]: 4.45

CCc1nc(C)c(C(=O)NCC(c2cccnc2)N2CCCCC2)s1 (centres unmarked) [LC-59]
IC50 ([3]; resazurin): > 20 µM

Cc1cc(F)ccc1N1CCC(NC(Cn2ccnc2)c2ccccc2)CC1 (centres unmarked) [LC-60]
Papp at 5 h, 10 μM [4]: 6.36 ×10⁻⁶ cm/s
microsomal CLint at 0.5 μM [5]: 120 µL/min/mg
half-life at 0.5 μM [5]: 0.386 h
chromatographic logD [6]: 4.45
CC50 at 72 h [2]: 40.8 ± 28.2 µM
IC50 ([3]; resazurin): 0.43 ± 0.05 µM

CCCCC(NC1CCN(c2ccccc2F)CC1)c1cccnc1 (centres unmarked) [LC-61]
Papp at 5 h, 10 μM [4]: 4.86 ×10⁻⁶ cm/s
PAMPA Pe [4]: 4.86 10^–6 cm/s
chromatographic logD [6]: 4.07
CC50 at 72 h [2]: 157 ± 20.7 µM
IC50 ([3]; resazurin): 0.037 ± 0.002 µM

Fc1ccc(N2CCC(NCC(c3cccnc3)N3CCCCC3)CC2)cc1F (centres unmarked) [LC-62]
Selectivity index Intracellular [1]: >24.7
CC50 at 72 h [2]: > 100 µM
IC50 ([3]; resazurin): 9.62 ± 0.98 µM
Selectivity index Promastigotes [3]: >10.4

Fc1cccc(CN(Cc2cccnc2)CC2CCCN(C3CCCCC3)C2)c1 (centres unmarked) [LC-63]
IC50 [1, 8]: 11.5 ± 24 µM
CC50 at 72 h [2]: 32.9 ± 5.22 µM
IC50 [3]: 4.53 ± 0.8 µM
Selectivity index Promastigotes [3]: 7.26

Cc1ccccc1CN1CCC(CN(Cc2cccnc2)Cc2nc(C(C)C)cs2)CC1 [LC-64]
IC50 [1, 7]: 6.72 ± 5.79 µM
Selectivity index Intracellular [1]: 4.13
CC50 at 72 h [2]: 27.8 ± 3.59 µM
IC50 ([3]; resazurin): 3.95 ± 0.42 µM
Selectivity index Promastigotes [3]: 7.03

O=C(C(c1cccnc1)N1CCOCC1)N1CCCN(Cc2ccc(F)cc2)CC1 (centres unmarked) [LC-65]
IC50 [1, 8]: > 55.5 µM
CC50 at 72 h [2]: > 245 µM
IC50 [3]: 3.59 ± 0.53 µM

O=C(Cc1ccccc1)NC(c1ccc(Cl)cc1)c1cccnc1 (centres unmarked) [LC-66]
IC50 [1, 7]: 40.5 ± 58.7 µM
Selectivity index Intracellular [1]: >2.46
CC50 at 72 h [2]: > 100 µM
IC50 ([3]; resazurin): 3.18 ± 0.72 µM
Selectivity index Promastigotes [3]: >31.4

O=C(NCCc1cnc[nH]1)c1cc(-c2ccccc2)nc2ccccc12 [LC-67]
IC50 ([3]; resazurin): > 20 µM

Cc1ccc(C)c(-c2nc(NC(=O)c3ccncc3)sc2C)c1 [LC-68]
IC50 ([3]; resazurin): > 20 µM

Cc1ccc(C)c(-c2nc(NC(=O)C3CC3)sc2C)c1 [LC-69]
IC50 ([3]; resazurin): > 20 µM

CC(C)N1CCC(C(=O)NC(c2ccc(Cl)cc2)c2cccnc2)CC1 (centres unmarked) [LC-70]
IC50 ([3]; resazurin): > 20 µM

O=C1OCc2ccc(NC(=O)N3CCCCC3c3cccnc3)cc21 (centres unmarked) [LC-71]
IC50 [1, 8]: < 10 µM
Selectivity index Intracellular [1]: >20.5
IC50 [1, 9]: 9.76 ± 10.2 µM
CC50 at 72 h [2]: > 200 µM
IC50 ([3]; resazurin): 11.7 ± 2.86 µM
Selectivity index Promastigotes [3]: >17.1

Cn1nnc2cc(NC(=O)N3CCCCC3c3cccnc3)ccc21 (centres unmarked) [LC-72]
IC50 ([3]; resazurin): > 20 µM

CC(C)n1cc(C(=O)NC(c2ccc(Cl)cc2)c2cccnc2)cn1 (centres unmarked) [LC-73]
IC50 ([3]; resazurin): > 20 µM

O=C(Nc1ccc(Cl)cn1)N1CCCCC1c1cccnc1 (centres unmarked) [LC-74]
Papp at 5 h, 10 μM [4]: 10.8 ×10⁻⁶ cm/s
microsomal CLint at 0.5 μM [5]: 27.2 µL/min/mg
half-life at 0.5 μM [5]: 1.7 h
chromatographic logD [6]: 2.39
CC50 at 72 h [2]: > 200 µM
IC50 ([3]; resazurin): 0.49 ± 0.07 µM

OC(COc1ccc(Br)cc1)Cn1ccnc1 (centres unmarked) [LC-75]
IC50 [1, 8]: < 10 µM
Selectivity index Intracellular [1]: >14.8
IC50 [1, 9]: 6.73 ± 3.27 µM
CC50 at 72 h [2]: > 100 µM
IC50 ([3]; resazurin): 10.5 ± 1.26 µM
Selectivity index Promastigotes [3]: >9.52
